Experimental data published in patent publication US20230398087A1, “APPLICATION OF BZP IN TREATMENT OF ISCHEMIC CARDIOVASCULAR AND CEREBRAL VASCULAR DISEASES” (priority 2020, published 2023).
Several values for one entry are separate records, joined by “and”; a condition that tells them apart may be missing. Equal values may be shown once. Entries after “also recorded” stand apart in the source; their conditions may differ.

Legend:
neurobehavior = test: Safety pharmacology, neurobehavior; format: in vivo, rats
Experimental: These changes all recovered within 4 hours after drug withdrawal. The effective dose (12 mg/kg) of BZP to protect against ischemia-reperfusion injury in rats was lower than the dose (50 mg/kg) that caused neurological effects in rats.

platelet aggregation [1] = test: Rat in vivo platelet aggregation
[2] = test system: TNF-α, IL-6, IL-1β, NF-κB, COX-2, ICAM-1; test: Inflammatory response induced by focal cerebral ischemia-reperfusion injury, immunohistochemical staining; format: in vivo, rats
Source text: 2.2 Effects of BZP on Inflammatory Response Induced by Focal Cerebral Ischemia-Reperfusion Injury in Rats:
The results of TNF-α, IL-6, IL-1β, NF-κB, Cox-2, ICAM-1 immunohistochemical staining
BZP can inhibit the cellular inflammatory response induced by cerebral ischemia-reperfusion injury, manifested as inhibiting the expression of TNF-α-IL-6-IL-1β-NF-κB-COX-2-ICAM-1 loop.

[3] = Tissue distribution, metabolism and excretion in animals; format: in vivo
Source text: BNBP-OH is the main metabolite of BNBP (via NADPH coenzyme/CYP450).

platelet aggregation [4] = test: Ex vivo platelet aggregation; format: cell-based
[5] = BZP1702 Phase I multiple doses pharmacokinetics in healthy subjects; settings: for half-life: both, human, plasma
Experimental: Analysis population: same as BZP1601 trial. The study contained 4 BZP groups (50 mg, 100 mg, 200 mg respectively) and a placebo group. Each group enrolled 10, 10, 10 and 6 subjects, respectively, a total of 36 subjects. 1 subject in the 50 mg group took a drug two days before the administration, and the paracetamol, caffeine, artificial cow-bezoar and chlorphenamine maleate may affect the metabolism of the drug, and the subject dropped out of the group after collecting a 24-hour blood sample on the second day of administration, so the pharmacokinetic parameters could not be fully calculated, and thus this subject was not included in the pharmacokinetic analysis data set, and the other 29 subjects who were given BZP were all included in the pharmacokinetic analysis data set.
(§2) The blood samples were collected at 0 minutes, 20 minutes, 40 minutes, minutes (end of infusion), 1.25 hours, 1.5 hours, 2 hours, 2.5 hours, 3 hours, 4 hours, 6 hours, 8 hours, 12 hours, 16 hours, 24 hours, 36 hours, and 48 hours after administration in BZP1601 trial, while in the BZP1702 trial, on the first day of administration, the blood samples were collected only by 24 hours after administration.

[6] = test system: SYN, GAP-43, BDNF, GFAP, NOGO-A in the ischemic penumbra area; test: Neuroplasticity after focal cerebral ischemia-reperfusion injury; format: in vivo, rats
Source text: 2.4 Effect of BZP on Neuroplasticity after Focal Cerebral Ischemia-Reperfusion Injury in Rats: […]

[7] = BZP1601 Phase I single dose pharmacokinetics in healthy subjects
Experimental: Analysis population: Any subjects who have received BZP and undergone biological sample collections and can undergo pharmacokinetic analysis will be included in the pharmacokinetic analysis (excluding the 12.5 mg of pre-study group). The study analysis included 6 BPZ groups (respectively 25 mg, 50 mg, 100 mg, 200 mg, 300 mg, and 400 mg) and the placebo group, and the number of subjects enrolled in each group was 8, 8, 8, 8, 8, 8, 12 subjects, a total of 60 subjects. All 60 subjects enrolled in the formal study were included in the pharmacokinetic analysis set.
as §2

[8] = Long-term toxicity test, 13 consecutive weeks, dogs; format: in vivo
Experimental: (§1) These gradually returned to normal within 1 hour. […] The nervous system and respiratory system reactions in the long-term toxicity test were transient reactions, and the slight anemia and damage to the liver also recovered within the observation period.

[9] = test system: global cerebral ischemia-reperfusion model in rats; test: Global cerebral ischemia-reperfusion injury in rats; format: in vivo
Experimental: BZP has a protective effect on cerebral ischemia-reperfusion injury and is effective when administered within 4 hours after ischemia, especially within 2 hours after ischemia.
2.5 The Protective Effect of BZP on Global Cerebral Ischemia-Reperfusion Injury in Rats:
BZP has a protective effect on acute global cerebral ischemia in rats, and its mechanism is to inhibit the inflammatory response and apoptosis of cells.

experimental thrombosis = test: Experimental thrombosis in rats; format: in vivo; settings: for results of experimental thrombosis: significantly lower than model group (P<0.01)
[10] = Pharmacokinetics after intravenous injection in rats; format: in vivo
[11] = Long-term toxicity test, 13 consecutive weeks, rats; format: in vivo
Experimental: as §1

in vivo = settings: for recovery of toxic reactions in the nervous system and respiratory system: acute toxicity test; for MTD: in vivo, single intravenous injection
Experimental: In the acute toxicity test, a single intravenous injection of BZP was given to rats and dogs, and the MTDs were 200 mg/kg and 300 mg/kg.

[12] = test system: acute global cerebral ischemia in rats; test: Acute global cerebral ischemia in rats, volume of cerebral infarction (nuclear magnetic resonance); format: in vivo
Source text: 2.7 The Protective Effect of BZP on Acute Global Cerebral Ischemia in Rats: […]

respiratory system = test: Safety pharmacology, respiratory system; format: in vivo, rats; settings: single intravenous injection 25-100 mg/kg
Experimental: In terms of the respiratory system, a single intravenous injection of BZP 25-100 mg/kg had no effect on rats.

[13] = test system: Bax/Bcl-2-cytochrome C-Caspase-3 mitochondrial apoptosis pathway; PI3K-p-Akt survival signaling pathway; test: Neuronal apoptosis after focal cerebral ischemia-reperfusion injury; parameters: species or system rats; settings: rat, in vivo
Source text: 2.3 The Protective Effect of BZP on Neuronal Apoptosis after Focal Cerebral Ischemia-Reperfusion Injury in Rats: […]

[14] = 12 mg/kg of BZP vs 9.6 mg/kg NBP-K and 10.5 mg/kg Br-NBP
[15] = low, middle and high dose, compared with the model group
[16] = compared with the model group (P<0.05)
[17] = 7 consecutive days, 6.0 mg/kg, rats

CCCCC(O)c1ccc(Br)cc1C(=O)[O-].[Na+] (stereo not drawn) [BZP, sodium 5-bromo-2-(α-hydroxypentyl)benzoate]
time to recovery of neurobehavioral changes after drug withdrawal (neurobehavior; 50 and 100 mg/kg): ≤ 4 h
dose that caused neurological effects in rats (neurobehavior; single intravenous injection): 50 mg/kg
body temperature (neurobehavior; single intravenous injection 50 mg/kg and 100 mg/kg): decrease in body temperature
neurobehavioral signs at high dose (neurobehavior; single intravenous injection 100 mg/kg): decreased activity, erect hair, decreased frequency of defecation and urination and loss of pupillary stimulation reflex
platelet aggregation inhibition rate, ADP (platelet aggregation [1]; first (low) dose group): 23.89%
platelet aggregation inhibition rate, arachidonic acid (platelet aggregation [1]; first (low) dose group): 42.08%
platelet aggregation inhibition rate, thrombin (platelet aggregation [1]; first (low) dose group): 23.87%
platelet aggregation inhibition rate, ADP (platelet aggregation [1]; second (medium) dose group): 34.42%
platelet aggregation inhibition rate, arachidonic acid (platelet aggregation [1]; second (medium) dose group): 60.32%
platelet aggregation inhibition rate, thrombin (platelet aggregation [1]; second (medium) dose group): 37.75%
platelet aggregation inhibition rate, ADP (platelet aggregation [1]; third (high) dose group): 44.14%
platelet aggregation inhibition rate, arachidonic acid (platelet aggregation [1]; third (high) dose group): 72.20%
platelet aggregation inhibition rate, thrombin (platelet aggregation [1]; third (high) dose group): 55.47%
number of positive cells, comparison with NBP-K and Br-NBP groups [2, 14]: better than 9.6 mg/kg of NBP-K group and 10.5 mg/kg of Br-NBP group
optical density value, comparison with NBP-K and Br-NBP groups [2, 14]: better than 9.6 mg/kg of NBP-K group and 10.5 mg/kg of Br-NBP group
expression of TNF-α, IL-6, IL-1β, NF-κB, COX-2, ICAM-1, immunohistochemical staining optical density value [2, 15]: significantly reduced
expressions of TNF-α, IL-6, IL-1β, NF-κB, COX-2, ICAM-1, number of immunohistochemical positive cells [2, 15]: significantly reduced
tissue distribution of BZP ([3]; at 110 minutes of administration): the fat content was the highest
detectability in the brain ([3]; eliminated quickly): cannot be detected after 50 minutes
concentration in the brain ([3]; in vivo): relatively low
conversion of BZP in vivo ([3]; not via NADPH coenzyme/CYP450): rapidly converted to BNBP
ability of tissues to transform BZP in vitro ([3]; spleen has the lowest ability): liver tissue has the strongest ability to transform BZP in vitro
tissue distribution of BZP ([3]; within 50 minutes of administration): higher in the lung tissue
inhibition of ADP-induced platelet aggregation (platelet aggregation [4]; ADP-induced): no inhibitory effects
IC50 (platelet aggregation [4]; Platelet, AA-induced): 12 µM
inhibition of thrombin-induced platelet aggregation (platelet aggregation [4]; thrombin-induced): no inhibitory effects
accumulation after multiple intravenous infusions ([5]; 7 days): no obvious drug accumulation; also recorded: no significant drug accumulation; also recorded: There was no significant
metabolites other than BNBP ([5]; BZP1702): No significant metabolites other than BNBP were found
accumulation ratio ([5]; after 7 days of continuous administration): 1.10-1.18
half-life ([5]; intravenous): 320 to 334 min
half-life ([5]; iv): 666 to 798 min
difference in AUC0-t and Cmax between subjects of different genders ([5]; multiple doses): not significantly different and 7 days. There was no
mean ratio range between genders, AUC0-t ([5]; multiple doses): 0.797-1.01
mean ratio range between genders, Cmax ([5]; multiple doses): 0.799-1.01
day on which blood drug level reached steady state ([5]; multiple intravenous infusions of BZP, 50-200 mg): steady state on the 5th day; also recorded: steady state on the fifth
relationship of AUC0-t and Cmax in plasma with the dose ([5]; multiple intravenous infusions, 50-200 mg, first and steady-state administration): linearly related to the dose; also recorded: linear relationship with the dose
NOGO-A expression ([6]; ischemic penumbra area): down-regulating
expression of SYN, GAP-43, BDNF and GFAP ([6]; ischemic penumbra area): increasing
nerve repair and recovery of motor function after cerebral ischemic injury ([6]; rat, in vivo): promote nerve repair
debrominated metabolites ([7]; 200 mg group): no debrominated metabolites were found
metabolites other than BNBP ([7]; BZP1601): did not find other meaningful metabolites except BNBP
Tmax / time of peak blood drug level ([7]; BZP1601, median Tmax similar in each dose group): basically reached the peak blood drug level after the end of administration
half-life ([7]; both, human, plasma, iv): ~480 min
difference in AUC0-t and Cmax between subjects of different genders ([7]; single dose 25-400 mg): not significantly different; also recorded: There was no significant
cumulative urine excretion rate across dose groups ([7]; single dose, each dose group): basically the same
relationship of AUC0-t and Cmax in plasma with the dose ([7]; single intravenous infusion, 25-400 mg): linearly related to the dose
clinical signs during and after administration ([8]; 50 mg/kg, some dogs): tremors in the head and limbs, loose stools, vomiting, and salivation
clinical signs during each administration ([8]; 150 mg/kg intravenous once a day, 13 weeks, dogs): vomited white foam-like substances, salivation, head and whole body tremors, spasms/convulsions
anemia and liver findings ([8]; 150 mg/kg, dogs): mild anemia and liver damage
NOAEL at 13 weeks ([8]; dog, in vivo, long-term toxicity test, dogs, read-out: NOAEL dose): 50 mg/kg
recovery of symptoms ([8]; dogs, after drug withdrawal): all recovered after 28 days of drug withdrawal
mortality and behavioral score within 24 hours ([9]; 12 mg/kg): reduce the mortality and behavioral score
mortalities within 24 hours ([9]; 3 and 12 mg/kg): lower than those in the model group and the NBP-K group
cell survival pathways (PI3K, P-Akt) ([9]; compared with the model group (P<0.01)): significantly increased
behavioral scores [9, 16]: significantly lower
expression of inflammatory circuit factors, apoptosis pathway factors, neuron necrosis rate and apoptosis rate in hippocampal CA1 region [9, 16]: significantly decreased
experimental thrombosis compared with the Br-NBP group (experimental thrombosis; high dose group (P<0.01)): weaker than that in the Br-NBP group
experimental thrombosis compared with the ASA group with the same molar dose (experimental thrombosis; high dose group (P>0.05)): no statistical difference
results of experimental thrombosis (experimental thrombosis; high dose group): 0.13±0.03
results of experimental thrombosis (experimental thrombosis; low dose group): 0.23±0.04
results of experimental thrombosis (experimental thrombosis; medium dose group): 0.18±0.02
AUC0-t after the last administration compared with the first [10, 17]: significantly higher than that of the first time
Cmax, single dose compared with multiple doses [10, 17]: no difference
accumulation in the body ([10]; intravenous, 7 consecutive days, 6.0 mg/kg, rats): did not accumulate
AUC0-t, female compared with male rats ([10]; single intravenous injection): significantly higher than that in male rats
Cmax and AUC0-t versus dose ([10]; single intravenous injection of BZP 0.75-12.0 mg/kg, rats): basically conformed to linear kinetics
time to return to normal ([11]; 150 mg/kg): ≤ 1 h
clinical signs at the end of each administration ([11]; 150 mg/kg intravenous once a day, 13 weeks): shortness of breath, prone position, occasional salivation, and disappearance of righting reflex
hematology, blood biochemistry, eye examination and urine routine ([11]; 13 weeks): no obvious abnormalities
NOAEL at 13 weeks ([11]; rat, in vivo, long-term toxicity test, read-out: NOAEL dose): 50 mg/kg
recovery of toxic reactions in the nervous system and respiratory system (in vivo; dogs): recovered within 15 minutes to 4 hours
recovery of toxic reactions in the nervous system and respiratory system (in vivo; rats): recovered within 15 minutes to 4 hours
MTD (in vivo; dog, dogs): 300 mg/kg
MTD (in vivo; rat, rats): 200 mg/kg
reduction of volume of cerebral infarction compared with Br-NBP group and NBP-K group ([12]; 12 and 24 mg/kg of BZP (P<0.01)): better than those in Br-NBP group and NBP-K group
volume of cerebral infarction ([12]; BZP 0.75, 3, 12 and 24 mg/kg, Br-NBP 10.5 mg/kg, NBP-K 9.6 mg/kg, vs model group): significantly reduce
effect on the respiratory system (respiratory system): no effect
Bax/Bcl-2-cytochrome C-Caspase-3 mitochondrial apoptosis pathway [13]: inhibiting
PI3K-p-Akt survival signaling pathway [13]: up-regulating
loss of nerve cells and apoptosis rate [13]: reduce the loss of nerve cells and reduce the apoptosis rate
